Assay [1] concerns HIV. In words: AZT/acyclovir combination, in vitro efficacy (protection) vs. HIV. The format is cell-based. The protocol:
Using a method analogous to that described in Example 79 of EP21758A, combinations of AZT and acyclovir (ACV) were tested for in vitro efficacy vs. HIV.

For assay [2], the system named is Friend Lenkemia Virus (FLV). In words: Anti-Friend Leukemia Virus plaque inhibition in FG-10 cells. The format is cell-based. The method, then:
FG-10 cells were seeded on a plate one day before they were infected with FLV. One hour after infecting, known concentrations of the test compounds or combinations were added. The plates were incubated for 3 days, the media replaced with fresh McCoy's 5A media and incubated another 3 days. […]

For assay [3], the system named is vaccinia, HSVI and varicella zoster virus (VZV). The conditions noted are these: De Clerq et al, Biochem.Pharm. (1980) 29, 1849-1851; including DNA viruses; cited from earlier work.
Assay [4] has as its system HIV. As to the kind of experiment: HIV p24 antigen by radioimmunoassay in HIV-infected PBMC cultures. It is filed as cell-based. As to conditions: Experiment 4, Day 14.
Assay [5] has as its system HIV. As to the kind of experiment: Reverse transcriptase activity in supernatant of HIV-infected PBMC, with multiple drug effect analysis. The format is cell-based. The conditions noted are these: for mean reverse transcriptase values: Experiment 2, Day 10.
For assay [6], the system named is E. coli CN314. As to the kind of experiment: MIC determination of each drug alone. It is filed as cell-based. The conditions noted are these: Escherichia coli. The method, then:
Microtiter dilutions were prepared using Wellcotest broth. Prior to synergy testing, MIC determinations were made for each compound individually against the test organism (E. coli CN314).

Assay [7] deals with HIV. As to the kind of experiment: Virus yield of HIV-infected PBMC cultures. The format is cell-based. The conditions noted are these: Experiment 3, Day 13; AZT .04 µM alone.
Setting [8] is: test drugs alone, E. coli CN314, read-out: MIC.

Like-named read-outs stand apart in the source and are kept apart here.

In the case of `Nc1nc2c(ncn2COCCO)c(=O)[nH]1` [ACV, 9-(2-hydroxyethoxymethyl) guanine, reference compound], the protection entry in assay [1] (ACV alone, 16 µg/ml (the highest tested)) is “less than 30%”. Further, the “potentiates the antiviral activity of AZT” value in assay [1] (ACV combined with AZT vs. HIV) is recorded as “about 3 fold”.
For `Cc1cn([C@H]2C[C@H](N=[N+]=[N-])[C@@H](CO)O2)c(=O)[nH]c1=O` [AZT], the EC50 in assay [2] (read-out: Azidothymidine ED50) is 5 nM. Moreover, in assay [3], the activity against viruses entry is listed as “no appreciable activity”. Also, the “HIV p24” value in assay [4] (AZT 0.02 µM alone) is listed as 100-200 ng protein/ml; in assay [4] (AZT 0.04 µM alone) it was 25-30 ng protein/ml; in assay [4] (AZT 0.08 µM alone), 11.2 ng protein/ml. Also, the “mean reverse transcriptase values” is recorded as 159 cpm/10^6 cells x 10^3 in assay [5] (AZT 0.01 µM alone); 110 cpm/10^6 cells x 10^3 in assay [5] (AZT 0.02 µM alone); 71 cpm/10^6 cells x 10^3 in assay [5] (AZT 0.04 µM alone); 31 cpm/10^6 cells x 10^3 in assay [5] (AZT 0.08 µM alone); 7 cpm/10^6 cells x 10^3 in assay [5] (AZT 0.16 µM alone). In addition, the “mean RT values” in assay [5] (Experiment 3, Day 13, AZT 0.02 µM alone) is given as 51 cpm/10^6 cells x 10^3; in assay [5] (Experiment 3, Day 13, AZT 0.04 µM alone) it was 10 cpm/10^6 cells x 10^3; in assay [5] (Experiment 3, Day 13, AZT 0.08 µM alone), 2 cpm/10^6 cells x 10^3; in assay [5] (Experiment 3, Day 13, AZT 0.16 µM alone), 5 cpm/10^6 cells x 10^3; in assay [5] (Experiment 4, Day 11, AZT 0.02 µM alone) it was 8 cpm/10^6 cells x 10^3; in assay [5] (Experiment 4, Day 11, AZT 0.04 µM alone), 4 cpm/10^6 cells x 10^3. Further, the “mean RT values” in assay [5] (Experiment 4, Day 11, AZT 0.08 µM alone) came to 1 cpm/10^6 cells x 10^3. In assay [5] (experiment 1, all concentrations of AZT (3.2 µM and 5 twofold dilutions)), the “inhibition of viral replication” value is listed as “fully inhibitory”. Besides, the MIC in assay [6] (setting [8]) is 1 µg/mL. Also, in assay [7], the virus yield was 10^3 TCID50 /ml. In addition, the protection in assay [1] (AZT alone at 8µM) is recorded as 100%. In addition, the “AZT” value in assay [1] (Table 3: AZT concentration with ACV 0 µg/ml, effect level not stated (presumably full protection)) worked out at 8 µM.
In the case of `O=C(N[C@H](CO)[C@H](O)c1ccc([N+](=O)[O-])cc1)C(Cl)Cl` [Chloramphenicol], the MIC in assay [6] (setting [8]) was 3.1 µg/mL.
Still for that read-out and setting: in the case of `CCC[C@@H]1C[C@@H](C(=O)N[C@@H]([C@H]2O[C@H](SC)[C@H](O)[C@@H](O)[C@H]2O)[C@H](C)Cl)N(C)C1` [Clindamycin] it was 100 µg/mL; in that of `CC[C@H]1OC(=O)[C@H](C)[C@@H](O[C@H]2C[C@@](C)(OC)[C@@H](O)[C@H](C)O2)[C@H](C)[C@@H](O[C@@H]2O[C@H](C)C[C@H](N(C)C)[C@H]2O)[C@](C)(O)C[C@@H](C)C(=O)[C@H](C)[C@@H](O)[C@]1(C)O` [Erthromycin], 25 µg/mL; in that of `CC(=O)O[C@H]1C[C@@]2(C)[C@@H](C[C@@H](O)[C@H]3[C@@]4(C)CC[C@@H](O)[C@@H](C)[C@@H]4CC[C@@]32C)/C1=C(\CCC=C(C)C)C(=O)O` [Fusidic acid], 1000 µg/mL.
On to `CO[C@H]1/C=C/O[C@@]2(C)Oc3c(C)c(O)c4c(O)c(c(/C=N/N5CCN(C)CC5)c(O)c4c3C2=O)NC(=O)/C(C)=C\C=C\[C@H](C)[C@H](O)[C@@H](C)[C@@H](O)[C@@H](C)[C@H](OC(C)=O)[C@@H]1C` [Rifampicin], for which, in assay [6] (setting [8]), the minimum inhibitory concentration (MIC) stood at 6.2 µg/mL.
The same measure, in the same setting: then `Cc1cc(C)nc(NS(=O)(=O)c2ccc(N)cc2)n1` [Sulphadimidine], with 32 µg/mL.
As to `NC[C@H]1O[C@H](O[C@H]2[C@H](O)[C@@H](O[C@H]3O[C@H](CO)[C@@H](O)[C@H](N)[C@H]3O)[C@H](N)C[C@@H]2N)[C@H](N)C[C@@H]1O` [Tobramycin], the MIC in assay [6] (setting [8]) was 0.4 µg/mL.
For the molecule `COc1cc(Cc2cnc(N)nc2N)cc(OC)c1OC` [Trimethoprim, 2,4-diamino-5-(3',4',5'-trimethoxybenzyl) pyrimidine], in assay [6] (CN314), the MIC stood at 0.125 µg/mL.
Consider `COc1cc(C(=O)OCCCN2CCCN(CCCOC(=O)c3cc(OC)c(OC)c(OC)c3)CC2)cc(OC)c1OC` [dilazep], for which the antiviral effect result in assay [2] (dilazep alone, 5 µM) was “Neither dipyridamole (10 µM) nor dilazep (5 µM) alone had any observed antiviral effect”.
Regarding `OCCN(CCO)c1nc(N2CCCCC2)c2nc(N(CCO)CCO)nc(N3CCCCC3)c2n1` [dipyridamole], the antiviral effect entry in assay [2] (dipyridamole alone, 10 µM) was “Neither dipyridamole (10 µM) nor dilazep (5 µM) alone had any observed antiviral effect”.

The values are drawn from EP0594223B1, “Combination of therapeutic nucleosides and further therapeutic agents” (THE WELLCOME FOUNDATION LIMITED, priority 1985, dated 1987).
